From patent US20100069402A1, “Treatment of Behavioral Disorders” (priority 2004, published 2010)

What was measured:
Type in all cases: in vivo
[1] = tested on: children with ADHD and allergic rhinitis; test: STUDY A: allergic rhinitis measures (rhinoconjunctivitis symptoms, RQLQ); settings: children 8-18 years with ADHD and seasonal allergic rhinitis; po qam for 2 weeks
Description: (§1) In general, two studies were conducted to better understand the association between the allergy/immune system and the central nervous system. STUDY A, tested the effects of cetirizine (namely ZYRTEC), cetirizine and methylphenidate (namely RITALIN SR), and methylphenidate, versus placebo on attention, memory, and behavior in children with ADHD and allergic rhinitis. STUDY B assessed NGF response to cetirizine and methylphenidate treatment in children with ADHD and allergic rhinitis.
(§2) The individuals chosen to be a part of these studies had the following characteristics:
(§3) All subjects were randomized into one of four treatment groups as follows:
(§4) 1) cetirizine alone: 10 mg po qam for 2 weeks;
(§5) 2) Combination of cetirizine and methylphenidate: 10 mg po qam RITALIN SR (20 mg if <65 kg; 40 mg if ≧65 kg) po qam for 2 weeks;
(§6) 3) Methylphenidate alone: (20 mg if <65 kg; 40 mg if ≧65 kg) po qam for 2 weeks; and
1) Rhinoconjunctivitis Symptoms
2) Total Symptom Severity Complex, (TSSC)
3) Adolescent Rhinoconjunctivitis Quality of Life Questionnaire, (RQLQ)

[2] = tested on: children with ADHD and allergic rhinitis; test: STUDY A: ADHD measures, Conners' Rating Scale t-scores; settings: po qam for 2 weeks; for hyperactivity t-scores (FIG. 1): evaluation of the ADHD parameters
Description: as §1, §2, §3, §4, §5, §6
5) Conners' Rating Scale—Revised, (CRS)

NGF = test: STUDY B: serum NGF assay by ELSA (Enzyme-Linked Immunosorbent Assay); settings: children with ADHD and allergies; po qam for 2 weeks; NGF highest on placebo
Description: as §1, §2, §3, §4, §5
3) Methylphenidate alone: (20 mg if <65 kg; 40 mg if ≧65 kg) po qam for 2 weeks; and […]

O=C(O)COCCN1CCN(C(c2ccccc2)c2ccc(Cl)cc2)CC1 (stereo not drawn) [cetirizine]
RQLQ emotional symptoms, change from baseline [1]: similar
RQLQ nasal symptoms [1]: methylphenidate had a superior effect compared to cetirizine
rhinoconjuctivitis quality of life scores [1]: methylphenidate had a superior effect compared to cetirizine
hyperactivity t-scores (FIG. 1) [2]: no difference was noted
parental Conner's report: ADHD score [2]: no difference was recorded
parental Conner's report: hyperactivity score [2]: no difference was recorded
parental Conner's report: inattention score [2]: no difference was recorded
parental Conner's report: oppositional score [2]: no difference was recorded
serum NGF level versus placebo (NGF): downregulated to the same extent

COC(=O)C(c1ccccc1)C1CCCCN1 (stereo not drawn) [methylphenidate]
RQLQ emotional symptoms, change from baseline [1]: similar
RQLQ nasal symptoms [1]: superior effect compared to cetirizine
rhinoconjuctivitis quality of life scores [1]: superior effect compared to cetirizine
hyperactivity t-scores (FIG. 1) [2]: no difference was noted
parental Conner's report: ADHD score [2]: no difference was recorded
parental Conner's report: hyperactivity score [2]: no difference was recorded
parental Conner's report: inattention score [2]: no difference was recorded
parental Conner's report: oppositional score [2]: no difference was recorded
serum NGF level versus placebo (NGF): downregulated to the same extent
